Data taken from paper PMC9861162 (Pharmaceuticals, 2022).

Target: CYP2C19 (Homo sapiens, UniProt P33261)
Assay: clinical DDI prediction, static (IVIVE) and dynamic (PBPK) models, CYP2C19
Excerpt: The Ki input values were estimated from the ratio IC50/2. Since the IC50 experiments were designed considering the substrate concentration equal to Km, the simplification of Ki as IC50/2 was considered for a competitive inhibition reaction.
The following Equation (4) was considered for the potential DDI evaluation:(4) AUCR=AUCwith inhibitor/AUCwithout inhibitor where AUCR is the area under the curve ratio, AUCwith inhibitor is AUC in the presence of the inhibitor, and AUCwithout inhibitor is AUC in the absence of the inhibitor.

Chain of CYP2C19 (P33261 whole entry): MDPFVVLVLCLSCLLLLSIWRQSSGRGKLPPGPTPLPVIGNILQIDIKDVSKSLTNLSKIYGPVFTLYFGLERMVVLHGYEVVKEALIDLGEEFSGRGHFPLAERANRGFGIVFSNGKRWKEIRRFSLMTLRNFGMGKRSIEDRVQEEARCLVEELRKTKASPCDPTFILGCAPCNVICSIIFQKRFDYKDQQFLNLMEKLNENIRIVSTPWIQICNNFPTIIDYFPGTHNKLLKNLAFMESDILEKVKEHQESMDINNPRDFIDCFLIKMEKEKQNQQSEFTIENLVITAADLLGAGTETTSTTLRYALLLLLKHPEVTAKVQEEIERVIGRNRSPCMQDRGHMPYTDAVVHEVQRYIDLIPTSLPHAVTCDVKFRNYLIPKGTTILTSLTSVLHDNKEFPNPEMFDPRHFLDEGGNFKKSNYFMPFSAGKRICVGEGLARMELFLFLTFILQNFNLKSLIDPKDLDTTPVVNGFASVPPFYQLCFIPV

SMILES: FC(F)(F)c1ccc(COC(Cn2ccnc2)c2ccc(Cl)cc2Cl)cc1 (centres unmarked) [dapaconazole, Dapaconazole]
- DDI potential from Ki and R1 values: high potential
- R1 (reversible inhibition, substrate S-mephenytoin): 15.14
